Results: patent publication US12290521B2, “Methods and materials for identifying and treating BET inhibitor-resistant cancers” (Mayo Foundation for Medical Education and Research, priority 2018, dated 2025)
“Also recorded” adds a separate entry of the source.

Legend:
Type in all cases: cell-based, human
BRD4 = experiment: ChIP-seq and ChIP-qPCR of BRD4 binding in C4-2 cells; details: control and SPOP-F133V C4-2 cells; JQ1 1 μM, 24 hours
Procedure: ChIP was performed as described elsewhere (Boyer et al., Cell, 122:947-956 (2005)). ChIP-seq libraries were prepared using the methods as described elsewhere (Boyer et al., Cell, 122:947-956 (2005)), and high throughput sequencing was performed using the Illumina HiSeq2000 platforms. The data were analyzed using the following pipeline: ChIP-seq raw reads were aligned to the human reference genome (GRCh37/hg19) using Bowtie2 (2.2.9), and reads mapped to one or two locations were kept for further analysis. Peak calling was performed by MACS2 (2.1.1) with p-value threshold of 1e-5. BigWig files were generated for visualization with the UCSC genome browser or IGV. GREAT (bejerano.stanford.edu/great/public/html/) was used to assign peaks to their potential target genes (a peak-gene association was determined if the peak fell into 2 kb region centering on the transcription start site of the gene). The common BRD4 target genes induced by SPOP F133V and HA-BRD4 expression were determined independently in each of two biological repeat experiments. Raw and processed data were deposited into NCBI Gene Expression Omnibus with accession number GSE88872.
For ChIP-qPCR experiments, DNAs pulled down by antibodies or non-specific IgG were amplified by real-time PCR. […]

22Rv1 cells = experiment: Cell proliferation assay (MTS) and trypan blue assay; details: JQ1 0.25 μM every other day
Procedure: (§1) CellTiter 96® AQueous One Solution Cell Proliferation Assay (MTS) (Promega) was used to measure cell growth according to the manufacturer's instructions. Briefly, cells were plated in 96-well plates at a density of 2,000 cells per well. At the indicated times, 20 μL of Cell Titer 96R Aqueous One Solution Reagent was added to medium. After incubating for 1 hour at 37° C. in the cell incubator, cell growth was measured in a microplate reader at 490 nm.
(§2) Trypan blue assay was performed to measure cell growth according to the manufacturer's instructions. Briefly, cells were plated in 6-well plates at a density of about 5×10^4 to about 1×10^5 cells per well. At the indicated time points, cells were trypsinized and suspended in 1 mL 1×PBS. 100 μL cells and 100 μL trypan blue solution (Sigma-Aldrich) were mixed, and the number of viable cells was measured using the Bio-Rad automated cell counter.

C4-2 cells = experiment: as above
Procedure: as §1, §2
Cell proliferation was measured by using the MTS assay (Promega). Prostate cancer cells (2,000 per well) were seeded in 96-well plates with 100 μL of culture medium. Each well was added with 20 μL of CellTiter 96R AQueous One Solution Reagent (Promega) and absorbance was measured in a microplate reader at 490 nm.

## Cc1sc2c(c1C)C(c1ccc(Cl)cc1)=N[C@@H](CC(=O)OC(C)(C)C)c1nnc(C)n1-2 [JQ1]
BRD4
  BRD4 binding in the AR gene promoter: largely decreased
  BRD4 binding in the MYC gene enhancer: substantial reduction
22Rv1 cells; EV-expressing 22Rv1 cells
  cell growth: inhibited growth
22Rv1 cells; SPOP-F133V-expressing 22Rv1 cells
  effect on cell growth: largely impeded
C4-2 cells; BRD4 knockout C4-2 cells with BRD2/3 largely depleted, JQ1 up to 500 nM, 24 hours
  sensitivity of cell growth to JQ1: highly resistant
C4-2 cells; SPOP F133V-expressing C4-2 cells, JQ1 2 μM, MTS
  sensitivity of cell growth to JQ1: JQ1 resistance
C4-2 cells; SPOP-F133V-expressing C4-2 cells, JQ1 0.25 μM every other day
  effect on cell growth: largely impeded
C4-2 cells; SPOP-knockdown C4-2 cells, JQ1 0.25 μM every other day
  effect on cell growth: largely attenuated
C4-2 cells; control (shC / EV) C4-2 cells, JQ1 0.25 μM every other day
  cell growth: robustly inhibited; also recorded: inhibited growth
